Measurements from ChEMBL document CHEMBL5131391, “One-pot three-component synthesis of novel pyrazolo[3,4-b]pyridines as potent antileukemic agents” (Eur J Med Chem, 2022).

Assays:
Type in all cases: functional
[1] = test system: RPMI-8226; assay: Antiproliferative activity against human RPMI-8226 cells assessed as growth inhibition measured after 48 hrs by NCI protocol based SRB assay
[2] = test system: HOP-62; assay: Antiproliferative activity against human HOP-62 cells assessed as growth inhibition measured after 48 hrs by NCI protocol based SRB assay
[3] = test system: HOP-92; assay: Antiproliferative activity against human HOP-92 cells assessed as growth inhibition measured after 48 hrs by NCI protocol based SRB assay
[4] = test system: NCI-H226; assay: Antiproliferative activity against human NCI-H226 cells assessed as growth inhibition measured after 48 hrs by NCI protocol based SRB assay
[5] = test system: NCI-H23; assay: Antiproliferative activity against human NCI-H23 cells assessed as growth inhibition measured after 48 hrs by NCI protocol based SRB assay
[6] = test system: HCT-116; assay: Antiproliferative activity against human HCT-116 cells assessed as growth inhibition measured after 48 hrs by NCI protocol based SRB assay
[7] = test system: KM12; assay: Antiproliferative activity against human KM12 cells assessed as growth inhibition measured after 48 hrs by NCI protocol based SRB assay
[8] = test system: HCC 2998; assay: Antiproliferative activity against human HCC 2998 cells assessed as growth inhibition measured after 48 hrs by NCI protocol based SRB assay
[9] = test system: HT-29; assay: Antiproliferative activity against human HT-29 cells assessed as growth inhibition measured after 48 hrs by NCI protocol based SRB assay
[10] = test system: SF-539; assay: Antiproliferative activity against human SF-539 cells assessed as growth inhibition measured after 48 hrs by NCI protocol based SRB assay
[11] = test system: SF-268; assay: Antiproliferative activity against human SF-268 cells assessed as growth inhibition measured after 48 hrs by NCI protocol based SRB assay
[12] = test system: SNB-75; assay: Antiproliferative activity against human SNB-75 cells assessed as growth inhibition measured after 48 hrs by NCI protocol based SRB assay
[13] = test system: M14; assay: Antiproliferative activity against human M14 cells assessed as growth inhibition measured after 48 hrs by NCI protocol based SRB assay
[14] = test system: OVCAR-3; assay: Antiproliferative activity against human OVCAR-3 cells assessed as growth inhibition measured after 48 hrs by NCI protocol based SRB assay
[15] = test system: ACHN; assay: Antiproliferative activity against human ACHN cells assessed as growth inhibition measured after 48 hrs by NCI protocol based SRB assay
[16] = test system: A498; assay: Antiproliferative activity against human A498 cells assessed as growth inhibition measured after 48 hrs by NCI protocol based SRB assay
[17] = test system: RXF 393; assay: Antiproliferative activity against human RXF 393 cells assessed as growth inhibition measured after 48 hrs by NCI protocol based SRB assay
[18] = test system: TK-10; assay: Antiproliferative activity against human TK-10 cells assessed as growth inhibition measured after 48 hrs by NCI protocol based SRB assay
[19] = test system: PC-3; assay: Antiproliferative activity against human PC-3 cells assessed as growth inhibition measured after 48 hrs by NCI protocol based SRB assay
[20] = test system: MDA-MB-231; assay: Antiproliferative activity against human MDA-MB-231 cells assessed as growth inhibition measured after 48 hrs by NCI protocol based SRB assay
[21] = test system: T47D; assay: Antiproliferative activity against human T47D cells assessed as growth inhibition measured after 48 hrs by NCI protocol based SRB assay
[22] = test system: HL-60(TB); assay: Cytostatic activity in human HL-60(TB) cells assessed as tumor growth inhibition measured after 48 hrs by NCI protocol based SRB assay
[23] = test system: EKVX; assay: Cytostatic activity in human EKVX cells assessed as tumor growth inhibition measured after 48 hrs by NCI protocol based SRB assay
[24] = test system: NCI-H460; assay: Cytostatic activity in human NCI-H460 cells assessed as tumor growth inhibition measured after 48 hrs by NCI protocol based SRB assay
[25] = test system: NCI-H522; assay: Cytostatic activity in human NCI-H522 cells assessed as tumor growth inhibition measured after 48 hrs by NCI protocol based SRB assay
[26] = test system: NCI-H23; assay: Cytostatic activity in human NCI-H23 cells assessed as tumor growth inhibition measured after 48 hrs by NCI protocol based SRB assay
[27] = test system: HCT-15; assay: Cytostatic activity in human HCT-15 cells assessed as tumor growth inhibition measured after 48 hrs by NCI protocol based SRB assay
[28] = test system: HT-29; assay: Cytostatic activity in human HT-29 cells assessed as tumor growth inhibition measured after 48 hrs by NCI protocol based SRB assay
[29] = test system: SF-539; assay: Cytostatic activity in human SF-539 cells assessed as tumor growth inhibition measured after 48 hrs by NCI protocol based SRB assay
[30] = test system: SF-268; assay: Cytostatic activity in human SF-268 cells assessed as tumor growth inhibition measured after 48 hrs by NCI protocol based SRB assay
[31] = test system: LOX IMVI; assay: Cytostatic activity in human LOX IMVI cells assessed as tumor growth inhibition measured after 48 hrs by NCI protocol based SRB assay
[32] = test system: UACC-62; assay: Cytostatic activity in human UACC-62 cells assessed as tumor growth inhibition measured after 48 hrs by NCI protocol based SRB assay
[33] = test system: IGROV-1; assay: Cytostatic activity in human IGROV-1 cells assessed as tumor growth inhibition measured after 48 hrs by NCI protocol based SRB assay
[34] = test system: NCI/ADR-RES; assay: Cytostatic activity in human NCl/ADR-RES cells assessed as tumor growth inhibition measured after 48 hrs by NCI protocol based SRB assay
[35] = test system: 786-0; assay: Cytostatic activity in human 786-0 cells assessed as tumor growth inhibition measured after 48 hrs by NCI protocol based SRB assay
[36] = test system: ACHN; assay: Cytostatic activity in human ACHN cells assessed as tumor growth inhibition measured after 48 hrs by NCI protocol based SRB assay
[37] = test system: TK-10; assay: Cytostatic activity in human TK-10 cells assessed as tumor growth inhibition measured after 48 hrs by NCI protocol based SRB assay
[38] = test system: MDA-MB-231; assay: Cytostatic activity in human MDA-MB-231 cells assessed as tumor growth inhibition measured after 48 hrs by NCI protocol based SRB assay
[39] = test system: MCF7; assay: Cytostatic activity in human MCF7 cells assessed as tumor growth inhibition measured after 48 hrs by NCI protocol based SRB assay
[40] = test system: T47D; assay: Cytostatic activity in human T47D cells assessed as tumor growth inhibition measured after 48 hrs by NCI protocol based SRB assay
[41] = read-out: LC50 (the source's name)

N#Cc1c(-c2ccccc2)nc2c(c(-c3ccccc3)nn2-c2ccccc2)c1-c1ccc(O)cc1
GI50 [1]: 2.42 µM
CC50 [1, 41]: > 100 µM
GI50 [2]: 2.12 µM
CC50 [2, 41]: 9.53 µM
GI50 [3]: 2.06 µM
CC50 [3, 41]: 8.6 µM
GI50 [4]: 1.97 µM
CC50 [4, 41]: 37.3 µM
GI50 [5]: 1.78 µM
CC50 [5, 41]: 8.26 µM
GI50 [6]: 2.63 µM
CC50 [6, 41]: 83.4 µM
GI50 [7]: 2.02 µM
CC50 [7, 41]: 14.9 µM
GI50 [8]: 1.84 µM
CC50 [8, 41]: 6.53 µM
GI50 [9]: 2.51 µM
CC50 [9, 41]: 54.7 µM
GI50 [10]: 1.25 µM
CC50 [10, 41]: 6.1 µM
GI50 [11]: 2.83 µM
CC50 [11, 41]: 47.2 µM
GI50 [12]: 2.03 µM
CC50 [12, 41]: 28.3 µM
GI50 [13]: 2.27 µM
CC50 [13, 41]: 23 µM
GI50 [14]: 2 µM
CC50 [14, 41]: 9.91 µM
GI50 [15]: 2.24 µM
CC50 [15, 41]: 20.5 µM
GI50 [16]: 1.66 µM
CC50 [16, 41]: 5.69 µM
GI50 [17]: 1.03 µM
CC50 [17, 41]: 5.37 µM
GI50 [18]: 2.89 µM
CC50 [18, 41]: > 100 µM
GI50 [19]: 1.82 µM
CC50 [19, 41]: 7.86 µM
GI50 [20]: 1.7 µM
CC50 [20, 41]: 6.44 µM
GI50 [21]: 3.05 µM
CC50 [21, 41]: > 100 µM
TGI [22]: 23.7 µM
TGI [23]: 5.1 µM
TGI [24]: 3.26 µM
TGI [25]: 6.03 µM
TGI [26]: 3.84 µM
TGI [27]: 3.79 µM
TGI [28]: 6.44 µM
TGI [29]: 2.76 µM
TGI [30]: 9.14 µM
TGI [31]: 3.05 µM
TGI [32]: 3.18 µM
TGI [33]: 3.62 µM
TGI [34]: 5.62 µM
TGI [35]: 5.35 µM
TGI [36]: 5.89 µM
TGI [37]: 8.19 µM
TGI [38]: 3.31 µM
TGI [39]: 4.76 µM
TGI [40]: 23.8 µM
